Values quoted from earlier work in patent US10716757B2, “Liposomal formulation for the oral hepatic delivery of drugs” (Universität Heidelberg, priority 2015, dated 2020).

Experiments:
[1] = film method followed by extrusion, reference [17]
[2] = Myrcludex B per se, no liposomes

Compound | encapsulation efficiency [1] | oral bioavailability [2]
C[C@@H](O)[C@@H]1NC(=O)[C@H](CCCCN)NC(=O)[C@@H](Cc2c[nH]c3ccccc23)NC(=O)[C@H](Cc2ccccc2)NC(=O)[C@@H](NC(=O)[C@H](N)Cc2ccccc2)CSSC[C@@H](C(=O)N[C@H](CO)[C@@H](C)O)NC1=O [octreotide] | 13.0 % (m/m) | –
Myr-HBVpreS/2-48 [Myrcludex B] | – | < 1%
